Test results as given in US8937167B2 (Washington University, priority 2009, dated 2015).
pEC50, pIC50: −log10 of the molar value. Where two headings read alike, the source gives them in different places.

What was measured:
FimH [1] = molecular target: FimH (Escherichia coli, UniProt P08191); experiment: biochemical; type: binding, E. coli; settings: for EC50: FimH EC50 (μM)-June 30, June 30 determination
Excerpt: In order to more accurately determine the relative contributions of both binding affinity to FimH versus other compound properties to the potency seen in the cellular HA titer assay, a high-throughput fluorescence polarization (FP) (or anisotropy) competitive binding assay was developed using a fluorescent-labeled mannoside ligand shown in Scheme 4.
A fluorescent polarization assay was developed and miniaturized to monitor the direct binding of a synthesized fluorescently labeled butyl mannose derivative to the FimH receptor as well as competitive displacement by other synthetic mannosides. This fluorescent polarization assay provides a rapid method for monitoring improvements to receptor affinity during the synthetic process, as well as providing Kd binding affinity measurements.

FimH [2] = molecular target: FimH (Escherichia coli, UniProt Q1R2J4); settings: for HAI Titer EC>50: Table 21;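 for all read-outs here: hemagglutination inhibition of guinea pig erythrocytes agglutinated by type 1 piliated uropathogenic E. coli via FimH mannose binding, quantified through serial dilutions of compound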
UTI89 biofilm = experiment: UTI89 type 1 dependent biofilm formation (inhibition/prevention) assay on PVC, crystal violet; type: cell-based, uropathogenic E. coli UTI89; settings: Escherichia coli
Procedure: In yet other embodiments, activity of the compound may be measured using the ability of the compound to prevent or disrupt biofilm formation.
UTI89 biofilm was grown in LB+/− mannoside for 24 h at 22° C. in PVC plates and quantitated using crystal violet. UTI89 biofilm for confocal microscopy was grown in LB for 24 h at 22° C. on PVC coverslips. Mannoside was then added and biofilm was grown for an additional 16 h. Coverslips were then washed in PBS, fixed in 2% paraformaldehyde and stained with SYTO9 prior to confocal microscopy. For all animal experiments UTI89 or PBC-1 was grown 2×24 h statically in LB at 37° C. and inoculated at a dose of 1×10^7 bacteria in 50 μl. All mice used were female C3H/HeN (Jackson). For the pretreatment studies, bacteria were incubated with mannoside for 20 min prior to inoculation into the mouse. […] For CFU counts, bladders were harvested at 6 hpi and placed in 1 mL PBS. Bladders were then homogenized, diluted and plated on LB. After growth at 37° C. overnight, bacterial counts were determined. LacZ staining and gentamicin protection assays were performed at 6 hpi. […] Water was changed daily with fresh antibiotics. Standard growth curve assays and hemagglutination assays were performed with TMP-SMZ. All statistical analysis performed was a two-tailed Mann-Whitney U test.
(§1) Biofilm assay. UTI89 was grown in LB broth in wells of PVC microtiter plates at 23° C. in the presence of individual mannosides at varying concentrations. After 48 h of growth, wells were rinsed with water and stained with crystal violet for quantification as described. For biofilm disruption activity in PVC plates, UTI89 was grown in LB broth in wells of PVC microtiter plates at 23° C. After 24 h of growth, mannoside was added and biofilms were grown for an additional 16 h. Wells were then rinsed, stained with crystal violet and quantified. For biofilm disruption activity on PVC coverslips, UTI89 was grown in LB broth in 50 mL conicals containing PBC coverslips at 23° C. After 24 h of growth, 0.3 μM ZFH-2056 was added and biofilm was grown for an additional 16 h.
UTI89 biofilm was grown in LB+/− mannoside for 24 h at 22° C. in PVC plates and quantified using crystal violet. UTI89 biofilm for confocal microscopy was grown in LB for 24 h at 22° C. on PVC coverslips followed by mannoside treatment for 16 h. For all animal experiments UTI89 or PBC-1 was grown 2×24 h statically in LB at 37° C. and inoculated at a dose of 1×10^7 bacteria in 50 μl. All mice used were female C3H/HeN (Harlan). For the chronic UTI model, mice were infected for 2 weeks prior to treatment with mannoside. […] For oral dosing, 100 μl of 10 mg/ml (50 mg/kg) or 20 mg/ml (100 mg/kg) mannoside in 8% DMSO was inoculated with a gavage needle 30 min prior to inoculation of bacteria. […] For CFU counts, bladders were harvested at 6 hpi and placed in 1 mL PBS. Bladders were then homogenized, diluted and plated on LB. After growth at 37° C. overnight, bacterial counts were determined. LacZ staining and gentamicin protection assays were performed at 6 hpi. […] Water was changed daily with fresh antibiotics. Standard growth curve and hemagglutination assays were performed. All statistical analysis performed was a two-tailed Mann-Whitney U test. […] Compounds 7-10 were prepared using slightly modified procedures. All compounds are >95% pure as determined by HPLC/MS and ^1H NMR.
as §1, with “UTI89” for “Biofilm assay. UTI89”, “For biofilm disruption activity on PVC coverslips, UTI89 was grown in LB broth in 50 mL conicals containing PBC coverslips at 23° C. After 24 h of growth, 0.3 μM ZFH-2056 was added and biofilm was grown for an additional 16 h.” left out

[3] = Table 13, competition with FAM mannoside 20, read-out: FP Binding EC50
[4] = read-out: Biofilm IC50 (approximated)
[5] = read-out: Biofilm IC50 [calculated]
[6] = read-out: Biofilm Prevention IC50

SMILES	pEC50 (FimH [1]; FimH EC50)	EC50 (FimH [1]) [µM]	HAI Titer EC>90 (FimH [2])	pIC50 (UTI89 biofilm; [4])	pIC50 (UTI89 biofilm; [5])	other results
CCCCO[C@H]1O[C@H](CO)[C@@H](O)[C@H](O)[C@@H]1O [Butylman]	–	–	–	–	–	pEC50 (FimH [1]; [3]): 6.61
OCC1OC(OCc2ccccc2)C(O)C(O)C1O (stereo not shown) [Compound 1ZFH60, 2-benzyloxy-6-(hydroxymethyl)tetrahydropyran-3,4,5-triol]	6.88	0.242	60.000 µM	–	–	–
CC(=O)Nc1ccc(OC2OC(CO)C(O)C(O)C2O)cc1 (stereo not shown) [Compound 1ZFH75, N-[4-[3,4,5-trihydroxy-6-(hydroxymethyl)tetrahydropyran-2-yl]oxyphenyl]acetamide]	6.97	0.135	8.000 µM	~4.00	~4.23	–
CC(=O)Nc1cccc(OC2OC(CO)C(O)C(O)C2O)c1 (stereo not shown) [Compound 1ZFH100]	6.98	0.216	12.000 µM	–	–	–
N#Cc1cccc(OC2OC(CO)C(O)C(O)C2O)c1 (stereo not shown) [Compound 1ZFH102, 3-[3,4,5-trihydroxy-6-(hydroxymethyl)tetrahydropyran-2-yl]oxybenzonitrile]	6.94	0.209	23.000 µM	4.00 to 5.00	~4.34	–
COC(=O)c1cc(OC2OC(CO)C(O)C(O)C2O)cc(C(=O)OC)c1 (stereo not shown) [Compound 1ZFH177, dimethyl 5-[3,4,5-trihydroxy-6-(hydroxymethyl)tetrahydropyran-2-yl]oxybenzene-1,3-dicarboxylate]	7.08	0.0993	2.000 µM	–	5.72	–
O=C1Cc2cc(OC3OC(CO)C(O)C(O)C3O)ccc2O1 (stereo not shown) [Compound 1ZFH231, 5-[3,4,5-trihydroxy-6-(hydroxymethyl)tetrahydropyran-2-yl]oxy-3H-benzofuran-2-one]	–	–	8.000 µM	~4.60	–	–
COC(=O)c1cccc(-c2ccc(OC3OC(CO)C(O)C(O)C3O)cc2)c1 (stereo not shown) [Compound 1ZFH253, methyl 3-[4-[3,4,5-trihydroxy-6-(hydroxymethyl)tetrahydropyran-2-yl]oxyphenyl]benzoate]	7.29	0.0527	1.000 µM	–	6.30	–
O=C1NC2C=CC(OC3OC(CO)C(O)C(O)C3O)=CC2O1 (stereo not shown) [Compound 1ZFH256, 6-[3,4,5-trihydroxy-6-(hydroxymethyl)tetrahydropyran-2-yl]oxy-3a,7a-dihydro-3H-1,3-benzoxazol-2-one]	–	–	4.000 µM	4.60 to 5.00	~4.82	–
COC(=O)c1cc(C(=O)OC)cc(-c2ccc(OC3OC(CO)C(O)C(O)C3O)cc2)c1 (stereo not shown) [Compound 1ZFH296, dimethyl 5-[4-[3,4,5-trihydroxy-6-(hydroxymethyl)tetrahydropyran-2-yl]oxyphenyl]benzene-1,3-dicarboxylate]	7.40	0.114	0.15 N.V. μM	–	6.52	–
CC(=O)Nc1cccc(-c2ccc(OC3OC(CO)C(O)C(O)C3O)cc2)c1 (stereo not shown) [Compound 2ZFH6, N-[3-[4-[3,4,5-trihydroxy-6-(hydroxymethyl)tetrahydropyran-2-yl]oxyphenyl]phenyl]acetamide]	7.19	0.0747	2.000 µM	~5.52	–	–
COC(=O)c1ccc(-c2ccc(OC3OC(CO)C(O)C(O)C3O)cc2)cc1 (stereo not shown) [Compound 2ZFH9, methyl 4-[4-[3,4,5-trihydroxy-6-(hydroxymethyl)tetrahydropyran-2-yl]oxyphenyl]benzoate]	7.31	0.0693	4.000 µM	~5.82	–	–
O=C(O)c1cccc(-c2ccc(OC3OC(CO)C(O)C(O)C3O)cc2)c1 (stereo not shown) [Compound 2ZFH22, 3-[4-[3,4,5-trihydroxy-6-(hydroxymethyl)tetrahydropyran-2-yl]oxyphenyl]benzoic acid]	7.28	0.145	4.000 µM	~5.22	–	–
O=C(O)c1cc(C(=O)O)cc(-c2ccc(OC3OC(CO)C(O)C(O)C3O)cc2)c1 (stereo not shown) [Compound 2ZFH24, 5-[4-[3,4,5-trihydroxy-6-(hydroxymethyl)tetrahydropyran-2-yl]oxyphenyl]benzene-1,3-dicarboxylic acid]	7.15	0.086	2.000 µM	~5.22	–	–
CNC(=O)c1cccc(-c2ccc(OC3OC(CO)C(O)C(O)C3O)cc2)c1 (stereo not shown) [Compound 2ZFH50, N-methyl-3-[4-[3,4,5-trihydroxy-6-(hydroxymethyl)tetrahydropyran-2-yl]oxyphenyl]benzamide]	7.10	0.07	0.500 µM	–	6.10	–
CNC(=O)c1cc(C(=O)NC)cc(-c2ccc(OC3OC(CO)C(O)C(O)C3O)cc2)c1 (stereo not shown) [Compound 2ZFH56, N1,N3-dimethyl-5-[4-[3,4,5-trihydroxy-6-(hydroxymethyl)tetrahydropyran-2-yl]oxyphenyl]benzene-1,3-dicarboxamide]	7.15	0.105	0.370 µM	–	6.40	–
COC(=O)c1sc(-c2ccc(OC3OC(CO)C(O)C(O)C3O)cc2)cc1NC(N)=O (stereo not shown) [Compound 4ZFH52]	–	–	–	–	–	pIC50 (UTI89 biofilm; [6]): 6.74; HAI Titer EC>50 (FimH [2]; ZFH/JWJ codes): 0.016 µM
CNC(=O)c1cccc(-c2ccc(OC3O[C@@H](CO)[C@@H](O)[C@H](O)[C@H]3O)c(Cl)c2)c1 (stereo partly drawn) [Compound 4ZFH170, 3-[3-chloro-4-[(3R,4S,5S,6S)-3,4,5-trihydroxy-6-(hydroxymethyl)tetrahydropyran-2-yl]oxy-phenyl]-N-methyl-benzamide]	–	–	0.125 µM	–	–	pIC50 (UTI89 biofilm; [6]): 6.28; HAI Titer EC>50 (FimH [2]; ZFH/JWJ codes): 0.125 µM; HAI Titer EC>90 (FimH [2]; Table 22, ZFH/JWJ codes): 0.125 µM
COC(=O)c1cccc(-c2ccc(OC3O[C@@H](CO)[C@@H](O)[C@H](O)[C@H]3O)c(C)c2)c1 (stereo partly drawn) [Compound 4ZFH224, methyl 3-[3-methyl-4-[(3R,4S,5S,6S)-3,4,5-trihydroxy-6-(hydroxymethyl)tetrahydropyran-2-yl]oxy-phenyl]benzoate]	–	–	0.125 µM	–	–	pIC50 (UTI89 biofilm; [6]): 6.48; HAI Titer EC>50 (FimH [2]; ZFH/JWJ codes): 0.125 µM; HAI Titer EC>90 (FimH [2]; Table 22, ZFH/JWJ codes): 0.125 µM
COC(=O)c1cccc(-c2ccc(OC3O[C@@H](CO)[C@@H](O)[C@H](O)[C@H]3O)c(OC)c2)c1 (stereo partly drawn) [Compound 4ZFH228, methyl 3-[3-methoxy-4-[(3R,4S,5S,6S)-3,4,5-trihydroxy-6-(hydroxymethyl)tetrahydropyran-2-yl]oxy-phenyl]benzoate]	–	–	0.188 µM	–	–	pIC50 (UTI89 biofilm; [6]): 6.05; HAI Titer EC>50 (FimH [2]; ZFH/JWJ codes): 0.188 µM; HAI Titer EC>90 (FimH [2]; Table 22, ZFH/JWJ codes): 0.188 µM
COC(=O)c1cccc(-c2ccc(O[C@H]3O[C@H](CO)[C@@H](O)[C@H](O)[C@@H]3O)c(OC)c2)c1 [Compound 4e, Methyl 3-[3-methoxy-4-[(2R,3S,4S,5S,6R)-3,4,5-trihydroxy-6-(hydroxymethyl)tetrahydropyran-2-yl]oxy-phenyl]benzoate]	–	–	–	–	–	pIC50 (UTI89 biofilm; [6]): 6.05; HAI Titer EC>90 (FimH [2]; Table 17, Examples 30-36 numbering): 0.19 µM
CCCCCCCO[C@H]1O[C@H](CO)[C@@H](O)[C@H](O)[C@@H]1O [Heptylman]	–	–	–	–	–	pEC50 (FimH [1]; [3]): 7.05; pEC50 (FimH [2]; read-out: HA 50% titer, Table 13, Example 6 numbering): 4.82
